# Values quoted from earlier work, collected in US11491230B2, “Medication” (priority 2015, dated 2022).
# Columns and labels:
# [1] = tested on: estrogen receptor-positive and estrogen receptor-negative breast cancer cell lines; details: inducing apoptosis in a concentration-dependent manner
# [2] = tested on: nontumorigenic mammary cells
# PC-3 = PC-3 (Ruiz et al. 1999)
# [3] = biological target: T1, androgen receptor in the prostate gland (Homo sapiens, UniProt P10275)
# T1 construct: host or cells: prostate gland
# T1 sequence (P10275 1-920): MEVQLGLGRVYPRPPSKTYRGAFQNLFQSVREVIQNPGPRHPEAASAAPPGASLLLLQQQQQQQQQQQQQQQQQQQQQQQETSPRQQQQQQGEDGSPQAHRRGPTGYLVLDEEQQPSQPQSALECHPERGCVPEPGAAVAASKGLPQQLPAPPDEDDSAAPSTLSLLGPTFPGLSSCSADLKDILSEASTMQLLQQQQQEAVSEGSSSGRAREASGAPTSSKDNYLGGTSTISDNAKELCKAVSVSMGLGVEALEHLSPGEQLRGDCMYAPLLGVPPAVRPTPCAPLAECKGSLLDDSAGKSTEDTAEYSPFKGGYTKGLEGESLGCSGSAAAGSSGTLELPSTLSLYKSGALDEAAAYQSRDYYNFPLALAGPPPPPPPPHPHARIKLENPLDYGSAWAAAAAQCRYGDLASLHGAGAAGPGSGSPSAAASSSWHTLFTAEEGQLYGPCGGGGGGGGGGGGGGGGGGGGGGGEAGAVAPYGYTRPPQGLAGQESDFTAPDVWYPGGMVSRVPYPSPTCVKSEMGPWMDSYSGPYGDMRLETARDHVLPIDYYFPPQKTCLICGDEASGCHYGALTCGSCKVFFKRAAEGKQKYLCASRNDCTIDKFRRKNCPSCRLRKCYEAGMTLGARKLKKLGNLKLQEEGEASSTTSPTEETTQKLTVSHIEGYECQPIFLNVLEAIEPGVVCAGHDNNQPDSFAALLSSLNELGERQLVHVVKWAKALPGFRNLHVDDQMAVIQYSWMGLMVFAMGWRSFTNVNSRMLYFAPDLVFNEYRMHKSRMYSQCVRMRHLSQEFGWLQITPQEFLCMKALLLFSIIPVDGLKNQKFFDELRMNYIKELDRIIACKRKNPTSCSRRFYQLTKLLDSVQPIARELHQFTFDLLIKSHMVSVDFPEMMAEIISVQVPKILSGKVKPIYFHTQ
# CB1 receptor = CB1 receptor (Homo sapiens, UniProt P21554)
# [4] = not given; remark: listed apart in the source
# CB1 receptor, sequence (P21554 whole entry): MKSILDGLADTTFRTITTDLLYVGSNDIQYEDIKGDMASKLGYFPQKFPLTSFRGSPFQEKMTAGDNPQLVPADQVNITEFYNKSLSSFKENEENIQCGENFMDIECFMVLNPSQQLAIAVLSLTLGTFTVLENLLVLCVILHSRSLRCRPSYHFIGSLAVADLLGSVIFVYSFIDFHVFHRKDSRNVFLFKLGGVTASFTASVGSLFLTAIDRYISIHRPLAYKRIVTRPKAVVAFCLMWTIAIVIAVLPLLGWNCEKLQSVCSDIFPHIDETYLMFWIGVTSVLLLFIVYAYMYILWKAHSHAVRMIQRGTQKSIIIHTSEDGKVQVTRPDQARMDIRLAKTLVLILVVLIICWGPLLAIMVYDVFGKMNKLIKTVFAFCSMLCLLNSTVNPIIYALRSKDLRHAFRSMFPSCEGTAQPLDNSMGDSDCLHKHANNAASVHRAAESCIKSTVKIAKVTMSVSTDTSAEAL
compound,measurement,setting,value
"C=C(C)[C@@H]1CCC(C)=C[C@H]1c1c(O)cc(CCCCC)cc1O [CBD, Cannabidiol]",survival of breast cancer cell lines,[1],inhibited the survival
same,effect on nontumorigenic mammary cells,[2],little effect
same,affinity to cannabinoid receptors,cannabinoid receptors,low affinity
"CCCCCc1cc(O)c2c(c1)OC(C)(C)[C@@H]1CCC(C)=C[C@@H]21 [THC, Tetrahydrocannabinol]",pain sensitivity,"cold-pressor test after administration, dronabinol oral capsules 10 mg or 20 mg",decreased pain sensitivity
same,duration of effect,dronabinol versus smoked marijuana,lasted longer than smoked marijuana
same,time until pain reduction effects were felt after administration,on the average,180 min
same,apoptosis,PC-3,causes apoptosis
same,specific binding of dihydroxytestosterone to the androgen receptor,[3],inhibits specific binding
"CCCc1cc(O)c2c(c1)OC(C)(C)[C@@H]1CCC(C)=C[C@@H]21 [THCV, Tetrahydrocannabivarin]",activity at CB1 receptor,CB1 receptor,CB1 receptor antagonist
vitamin E,reduction in breast cancer incidence,"[4]; pre-menopausal women with a family history of breast cancer, highest quantity of vitamin E consumed",43%
same,breast cancer risk reduction,[4]; women without a family history of breast cancer,16%
